Common to all, as to format: in vivo
Holding throughout (conditions): aged male mice (21-24 months), daily subcutaneous BAPN for 4 weeks, vs saline

For test [1], the system named is medial tibial cartilage of aged male C57/BL6 mice. Kind of test: BAPN daily injection in aged mice, cartilage histology (OARSI score). Here is the method: (§1) Aged male C57/BL6 mice (21-24 months; body mass) received daily subcutaneous injections of either saline, as a control, or BAPN (290 μg/μ1 in saline) for 4 weeks every day. Volume of the injection (40-80 μl) was determined based on mice body mass (m) with following protocol: 40 μl (18.45 g≤m≤23.73 g), 50 μl (23.73 g≤m≤29.00 g), 60 ul (29.00 g≤m≤34.27 g), 70 μl (34.27 g≤m≤39.55 g), 80 μl (39.55 g≤m≤44.82 g). Mice were weighed every other day beginning on day 0 and ending on day 28 to ensure proper dosage of BAPN.
Mice knee joints and human cartilage samples were fixed in 4% paraformaldehyde overnight at 4° C., and decalcified in 20% ethylene diamine tetra acetic acid solution for 10 days. Decalcified paraffin sections (5 μm thickness) were prepared from central region of the mice knee joints in the frontal plane in accordance with the OARSI recommendation (Glasson, et al., Osteoarthritis Cartilage 18 Suppl 3, S17-23 (2010)). Decalcified paraffin sections from human cartilage specimen were also prepared. […] The OARSI scoring system, consisting of six grades and four stages on a scale from 0 (normal) to 24 (severe cartilage lesion), was used for semi-quantitative evaluation of cartilage lesion severity (Pritzker, et al., Osteoarthritis Cartilage 14, 13-29 (2006)). The most severe score was evaluated as the maximum OARSI score. […]

The test system of another test is α-Klotho. The test can be described thus: BAPN daily injection in aged mice, α-Klotho immunofluorescence in chondrocytes. Here is the method:
as §1
Immunofluorescence analysis for tissue section and/or cell-seeded pAAm gel was performed to determine the signal intensity of type II collagen, α-Klotho, Lamin A/C, and Lamin B2 in accordance with established protocol (Sahu, et al., 2018, supra). Briefly, after a triple wash by PBS, cells were permeabilized with 0.1% triton-X (Fluka 93420) for 15 minutes, followed by a one-hour blocking step using 0.1% triton-X with 3% Bovine Serum Albumin (BSA, Sigma A7906) in PBS. The cells were then incubated with primary antibodies for overnight at 4° C. A similar process was followed for the decalcified tissue paraffin. […]
Slides were imaged using a Zeiss Observer Z1 semi-confocal microscope. […] All images for quantitative analysis in a given experiment were taken under the same imaging conditions. Fluorescence intensity was quantified using Image J

In test [2] the test system is chondrocyte nuclear morphology. The test can be described thus: BAPN daily injection in aged mice, chondrocyte nuclear morphology (CellProfiler, PCA). Here is the method:
as §1
DAPI and F-actin images were obtained at 63× and 20× magnification using a Zeiss Observer Z1 semi-confocal microscope, respectively. Afterwards, image processing and morphome feature extraction were performed using CellProfiler software (v4.0, The Broad Institute) (Carpenter et al., Genome Biol 7, R100 (2006)). Fifty-three shape features of cell and nuclei were determined using the “identify primary objects” followed by the “measure object size shape” and “export to spread sheet” module. Principal Component Analysis (PCA) was performed for the data reduction identifying the principal components (PCs) that represent the differences in the cellular and nuclear morphology. To determine variables of cellular and nuclear shape contributing to PCs, loading matrix, a correlation between the original variable and PCs, were extracted.

Entries after “also recorded” stand apart in the source; their conditions may differ.

In the case of `N#CCCN` [BAPN, β-aminopropionitrile], the “cartilage integrity (OARSI score)” value in test [1] is on record as “improves cartilage integrity”. The “α-Klotho expression in chondrocytes” value in the test on α-Klotho is “significantly increased α-Klotho levels; also recorded: increased α-Klotho expression; also recorded: improves α-Klotho expression”. Besides, in test [2], the “nuclear eccentricity of chondrocytes” value was “decreased nuclear eccentricity; also recorded: decreases nuclear eccentricity towards young level”.

Values taken from US20210330760A1, “METHODS AND MATERIALS FOR TREATING OSTEOARTHRITIS” (University of Pittsburgh - Of the Commonwealth System of …, priority 2020, published 2021).
